From article PMC10663540, “Structure-based discovery of dual pathway inhibitors for SARS-CoV-2 entry” (Nature Communications, 2023) come the findings set out here.

Several values for one entry are separate records, joined by “and”; a condition that tells them apart may be missing. Equal entries are not always repeated. Where two headings read alike, the source gives them in different places.

One experiment concerns SARS-CoV-2 Delta variant. The experiment is described as follows: microbe, parasite or virus in culture. It counts as cell-based.
Experiment [1] deals with SARS-CoV-2 Omicron BA.2 variant. Put plainly: microbe, parasite or virus in culture. Format: cell-based. As to conditions: for EC50: Severe acute respiratory syndrome coronavirus 2.
[2] abbreviates: Severe acute respiratory syndrome coronavirus 2, Calu-3; read-out: Antiviral efficacy EC50 (95% CI).
Where [3] appears, read: Calu-3, Omicron BA.2, […], read-out: Antiviral efficacy EC50 (95% CI).
[4] abbreviates: Severe acute respiratory syndrome coronavirus 2, Calu-3, read-out: Antiviral efficacy EC50 (95% CI).
Setting [5] is: Severe acute respiratory syndrome coronavirus 2, Calu-3, read-out: Inhibition: Delta.
Setting [6] is: Calu-3, Omicron BA.2, one representative replicate, before reprocessing, read-out: EC50, original manuscript version.
Setting [7] is: Calu-3; 0.0012207 μM; replicates.
Where [8] appears, read: Calu-3; 0.00488281 μM; replicates.
[9] abbreviates: Calu-3; 0.0195312 μM; replicates.
[10] abbreviates: Calu-3; 0.078125 μM; replicates.

For `NC(N)=Nc1ccc(C(=O)OCCN2CCN(C(=O)N[C@@H](Cc3ccccc3)C(=O)N[C@H](/C=C/S(=O)(=O)c3ccccc3)CCc3ccccc3)CC2)cc1` [212-148], the “Inhibition: Delta/Calu-3” value with SARS-CoV-2 Delta variant (212-148 8 μM; Fig. 5e) is 89.60% and 87.76%; in the experiment on SARS-CoV-2 Delta variant (212-148 40 μM; Fig. 5e), 98.01%. The “Selectivity index (SI = CC50/EC50)” value is recorded as 1,476 in the experiment on SARS-CoV-2 Delta variant (Calu-3; Delta) and 5,391 in experiment [1] (Calu-3, Omicron BA.2). Besides, the “block of viral replication in TCID50 assay (in words)” value with SARS-CoV-2 Delta variant (Calu-3; delta strain or omicron strain BA.2 (Fig. 5e)) is given as “completely blocked”. Further, the inhibition at 8 µM came to 85.5% in the experiment on SARS-CoV-2 Delta variant (Severe acute respiratory syndrome coronavirus 2, Calu-3, 212-148 8 μM; Fig. 5e; read-out: Inhibition: Delta/Calu-3) and 85.9% in experiment [1] (Severe acute respiratory syndrome coronavirus 2, Calu-3, 212-148 8 μM, Fig. 5e). In addition, the inhibition at 40 µM came out at 96.1% in the experiment with SARS-CoV-2 Delta variant (Severe acute respiratory syndrome coronavirus 2, Calu-3, 212-148 40 μM; Fig. 5e; read-out: Inhibition: Delta/Calu-3) and 99.4% in experiment [1] (Severe acute respiratory syndrome coronavirus 2, Calu-3, 212-148 40 μM, Fig. 5e). The compound also showed an inhibition at 200 µM with SARS-CoV-2 Delta variant (Severe acute respiratory syndrome coronavirus 2, Calu-3, 212-148 200 μM; Fig. 5e) of 100%. For the same compound, the values for the EC50 (with SARS-CoV-2 Delta variant (setting [2]); in experiment [1] (setting [3])) were 235 nM and 64.4 nM, respectively. Moreover, the “Inhibition: BA.2/Calu-3” value in experiment [1] (212-148 0.00256 μM, Fig. 5e) was 7.11%; in experiment [1] (212-148 0.064 μM, Fig. 5e), 29.70% and 52.65%; in experiment [1] (212-148 8 μM, Fig. 5e), 88.58%.

With `CN(C)C(=O)COC(=O)Cc1ccc(OC(=O)c2ccc(NC(=N)N)cc2)cc1` [Camostat], the “Inhibition: Delta” value in the experiment with SARS-CoV-2 Delta variant (0.078125 µM) was 31.59% and 52.79%; in the experiment on SARS-CoV-2 Delta variant (0.3125 µM), 64%; in the experiment on SARS-CoV-2 Delta variant (1.25 µM), 96.40%; in the experiment with SARS-CoV-2 Delta variant (5 µM) it was 92.99%; in the experiment with SARS-CoV-2 Delta variant (20 µM) it was 91.24%. Besides, the EC50 (commonly the concentration that produces a half-maximal response) in the experiment with SARS-CoV-2 Delta variant (setting [4]) is 109 nM. For the same compound, the inhibition at 0.3125 µM with SARS-CoV-2 Delta variant (setting [5]) turned out to be 53.9%. Also, in the experiment with SARS-CoV-2 Delta variant (setting [5]), the inhibition at 1.25 µM worked out at 95.4%. Also, in the experiment on SARS-CoV-2 Delta variant (setting [5]), the inhibition at 5 µM worked out at 92.4%. Further, in the experiment on SARS-CoV-2 Delta variant (setting [5]), the inhibition at 20 µM stood at 88.9%.

As for `CCOC(=O)C1OC1C(=O)NC(CC(C)C)C(=O)NCCC(C)C` (centres unmarked) [E64d], the “Inhibition: Omicron BA.2” value in experiment [1] (0.0411523 µM) is -1.22%; in experiment [1] (0.123457 µM), 20.89% and 27.12%; in experiment [1] (0.37037 µM) it was 68.35% and 58.49%; in experiment [1] (1.11111 µM) it was 89.97% and 78.59%; in experiment [1] (3.33333 µM) it was 93.67% and 90.37%; in experiment [1] (10 µM), 97.22% and 98.95%. The EC50 in experiment [1] (setting [3]) worked out at 240 nM; in experiment [1] (setting [6]), 227 nM.

With `CCOC(=O)c1ccc(OC(=O)CCCCCNC(=N)N)cc1` [Gabexate], the “Inhibition: Delta” value with SARS-CoV-2 Delta variant (setting [7]) is 14.57% and 29.88%; in the experiment on SARS-CoV-2 Delta variant (setting [8]), -54.36% and -37.95%; in the experiment with SARS-CoV-2 Delta variant (setting [9]), -64.93% and -37.95%; in the experiment with SARS-CoV-2 Delta variant (setting [10]) it was 31.59% and -7.79%; with SARS-CoV-2 Delta variant (Calu-3; 0.3125 μM; replicates), 39.67%; in the experiment with SARS-CoV-2 Delta variant (Calu-3; 1.25 μM; replicates), -34.59% and 12.43%. Moreover, the “Inhibition: Delta” value in the experiment with SARS-CoV-2 Delta variant (Calu-3; 5 μM; replicates) is 64.87% and -37.95%; in the experiment with SARS-CoV-2 Delta variant (Calu-3; 20 μM; replicates), -11.09% and 39.67%. Also, the “inhibitory efficacy (in words)” value in the experiment on SARS-CoV-2 Delta variant (Calu-3; Delta) is “negligible”. Moreover, in the experiment with SARS-CoV-2 Delta variant (Severe acute respiratory syndrome coronavirus 2, Calu-3, Calu-3; 0.3125 μM; replicates; read-out: Inhibition: Delta), the inhibition at 0.3125 µM stood at 53.9%. Also, in the experiment with SARS-CoV-2 Delta variant (setting [2]), the EC50 is more than 20000 nM.

Turning to `CN1CCN(C(=O)N[C@@H](Cc2ccccc2)C(=O)N[C@H](/C=C/S(=O)(=O)c2ccccc2)CCc2ccccc2)CC1` [K777], the “Inhibition: Delta” value with SARS-CoV-2 Delta variant (Calu-3; 0.00256 μM; replicates) is -6.46e-6% and 5.80% and -22.49%; in the experiment with SARS-CoV-2 Delta variant (Calu-3; 0.0128 μM; replicates), 16.53% (2×) and 0.45%; in the experiment with SARS-CoV-2 Delta variant (Calu-3; 0.064 μM; replicates) it was 24.66% (2×) and 0.45%; in the experiment on SARS-CoV-2 Delta variant (Calu-3; 8 μM; replicates) it was 82.03%; in the experiment on SARS-CoV-2 Delta variant (Calu-3; 40 μM; replicates), 97.04%. Further, the inhibition at 8 µM in the experiment with SARS-CoV-2 Delta variant (Severe acute respiratory syndrome coronavirus 2, Calu-3, Calu-3; 8 μM; replicates; read-out: Inhibition: Delta) is 85.5%. For the same compound, the inhibition at 40 µM with SARS-CoV-2 Delta variant (Severe acute respiratory syndrome coronavirus 2, Calu-3, Calu-3; 40 μM; replicates; read-out: Inhibition: Delta) stood at 98%. In addition, the EC50 came out at 638 nM in the experiment with SARS-CoV-2 Delta variant (setting [2]), 14 nM in experiment [1] (setting [3]) and 77.7 nM in experiment [1] (setting [6]). Besides, the “Inhibition: Omicron BA.2” value in experiment [1] (Calu-3, 0.00457247 μM, rep1-rep2) is -0.32% and 3.09%; in experiment [1] (Calu-3, 0.123457 μM, rep1-rep2), 90.17%; in experiment [1] (Calu-3, 0.37037 μM, rep1-rep2), 90.95%; in experiment [1] (Calu-3, 1.11111 μM, rep1-rep2), 85.59%; in experiment [1] (Calu-3, 3.33333 μM, rep1-rep2), 91.43%; in experiment [1] (Calu-3, 10 μM, rep1-rep2), 91.43%. The inhibition at 0.123457 µM in experiment [1] (Severe acute respiratory syndrome coronavirus 2, Calu-3, Calu-3, 0.123457 μM, rep1-rep2) was 70.6%. For the same compound, the inhibition at 0.37037 µM in experiment [1] (Severe acute respiratory syndrome coronavirus 2, Calu-3, Calu-3, 0.37037 μM, rep1-rep2) amounted to 87.7%. This compound yielded an inhibition at 1.11111 µM in experiment [1] (Severe acute respiratory syndrome coronavirus 2, Calu-3, Calu-3, 1.11111 μM, rep1-rep2) of 97.1%. The compound also showed an inhibition at 3.33333 µM in experiment [1] (Severe acute respiratory syndrome coronavirus 2, Calu-3, Calu-3, 3.33333 μM, rep1-rep2) of 98%. The compound also returned an inhibition at 10 µM in experiment [1] (Severe acute respiratory syndrome coronavirus 2, Calu-3, Calu-3, 10 μM, rep1-rep2) of 99.2%.

`N=C(N)c1ccc2cc(OC(=O)c3ccc(N=C(N)N)cc3)ccc2c1` [Nafamostat]: the “Inhibition: Delta” value in the experiment on SARS-CoV-2 Delta variant (0.00128 µM) is -1.10% and 5.80% and -6.46e-6%. Moreover, the “Inhibition: Delta” value with SARS-CoV-2 Delta variant (20 µM) worked out at 99.61%. Moreover, in the experiment on SARS-CoV-2 Delta variant (setting [4]), the EC50 turned out to be 26.3 nM. Further, in the experiment on SARS-CoV-2 Delta variant (setting [5]), the inhibition at 0.8 µM is 98.8%; the inhibition at 4 µM worked out at 98.6%; the inhibition at 20 µM worked out at 99.8%; the inhibition at […] was 90.6% and 87.8%.

For the compound `CC(C)(NS(=O)(=O)c1ccc2c(Cl)cnc(N=C(N)N)c2c1)C(=O)O` [UK-371804], the “Inhibition: Delta” value in the experiment with SARS-CoV-2 Delta variant (setting [7]) is -13.87% and -11.09%; with SARS-CoV-2 Delta variant (setting [8]), -7.79% and -36.72%; in the experiment on SARS-CoV-2 Delta variant (setting [9]), -13.87% and -11.09%; in the experiment on SARS-CoV-2 Delta variant (setting [10]) it was 5.76%; in the experiment on SARS-CoV-2 Delta variant (Calu-3; 0.3125 μM; replicates) it was 29.88% and 14.57%; with SARS-CoV-2 Delta variant (Calu-3; 1.25 μM; replicates) it was 77.84%. Besides, the “Inhibition: Delta” value in the experiment on SARS-CoV-2 Delta variant (Calu-3; 5 μM; replicates) and with SARS-CoV-2 Delta variant (Calu-3; 20 μM; replicates) was 90.58% throughout. Further, the “Selectivity index (SI = CC50/EC50)” value with SARS-CoV-2 Delta variant (Calu-3; Delta) was found to be 405. The inhibition at 0.078125 µM in the experiment on SARS-CoV-2 Delta variant (Severe acute respiratory syndrome coronavirus 2, Calu-3, Calu-3; 0.078125 μM; replicates) was 7.48%. Further, the inhibition at 1.25 µM in the experiment on SARS-CoV-2 Delta variant (Severe acute respiratory syndrome coronavirus 2, Calu-3, Calu-3; 1.25 μM; replicates; read-out: Inhibition: Delta) worked out at 77.3%. Moreover, the inhibition at 5 µM with SARS-CoV-2 Delta variant (Severe acute respiratory syndrome coronavirus 2, Calu-3, Calu-3; 5 μM; replicates; read-out: Inhibition: Delta) is 88.6%. Besides, in the experiment with SARS-CoV-2 Delta variant (Severe acute respiratory syndrome coronavirus 2, Calu-3, Calu-3; 20 μM; replicates; read-out: Inhibition: Delta), the inhibition at 20 µM turned out to be 93%. Moreover, in the experiment on SARS-CoV-2 Delta variant (setting [2]), the concentration for a half-maximal effect (EC50) was 425 nM.
